# Residues, ends and D or L forms follow the SMILES beside them. *: point of attachment. Propanoyl(2-F) = CC(F)C(=O)*
# Experiments:
# [1] = Ex vivo biodistribution (gamma-counting); assay type: in vivo, mice; settings: male, athymic nu/nu, mouse, iv, total radioactivity, 30 min after injection, mean ± SD, n = 4
# Description: (§1) The human head and neck squamous carcinoma (HNSCC) cell line UM-SCC-22B (obtained from the University of Michigan) was used in this study. The cells were maintained in DMEM supplemented with 10% fetal bovine serum (FBS), 1% glutamine, 100 unit/ml penicillin, and […] streptomycin (Invitrogen, CA). Subcutaneous UM-SCC-22B tumor model was established in 4 to 6 weeks old male athymic nu/nu mice (Harlan Laboratories). Typically, 5 × 10^6 cells suspended in 50 μl of PBS were injected in the right or left front shoulder. Tumor growth was followed by caliper measurements of perpendicular diameters of the tumor. The tumor volume was estimated by the formula: tumor volume = a×b^2 /2, where a and b were the tumor length and width, respectively, in millimeters. Small animal PET studies were performed when the tumor volume reached 100 to 200 mm^3.
# After microPET imaging, the blood of mice bearing UM-SCC-22B tumor xenografts was drawn from the orbital sinus, then mice were sacrificed by cervical dislocation and selected organs were excised. Blood, tumor, and major organs tissues were collected and weighed (wet weight). The radioactivity in each tissue was measured using a gamma-counter (Packard Instrument). Distribution of activity was calculated as percentage of injected dose per gram of organ (%ID/g). For each mouse, the radioactivity of the tissue samples was calibrated against a known aliquot of the injected dose and normalized to a body mass of 30 g. Values were expressed as mean ± SD for a group of four animals.
# UM-SCC-22B cells [2] = assay: Efflux experiment; assay type: cell-based, human; settings: UM-SCC-22B cells loaded 1 h at 37°C, then serum-free DMEM
# Description: (§2) For cell uptake measurement, UM-SCC-22B cells were seeded into a 24-well plate at a density of 1×10^5 cells per well and incubated with 18.5 kBq (0.5 μCi)/well of [^18F]FP-Met-pep1 at 37°C for 15, 30 and 60 min. Tumor cells were then washed twice with cold PBS and harvested by adding 250 μl of 0.1 N NaOH. Internalization assay was preformed similarly to the procedure described above. After 15, 30 and 60 min incubation of UM-SCC-22B cells with [^18F]FP-Met-pep1 at 37°C, the cells were washed twice with cold PBS and then incubated for 1 min with acid-washing-buffer (50 mM glycine, 0.1 M NaCl, pH = 2.8) to remove surface bound radioactive ligand. Thereafter, the cells were washed twice with cold PBS and harvested by adding 250 μl of 0.1 N NaOH. The blocking assay was preformed similarly to the procedure described above except that the unlabeled c-Met binding peptide was added into the wells (500 μg/well) and incubated for 15 min at 37°C before adding [^18F]FP-Met-pep1. For efflux experiment, all UM-SCC-22B cells in a 24-well plate were initially incubated with 18.5 kBq (0.5 μCi)/well of [^18F]FP-Met-pep1 at 37°C for 1 hour. […] The cell suspensions were collected and measured in a gamma counter and the cell uptake, internalization and efflux were expressed as the percentage of the added dose (%AD) after decay correction to EOB. […]
# [3] = MicroPET imaging, ROI quantification; assay type: in vivo, mice; settings: male, athymic nu/nu, mouse, iv, total radioactivity, 3.7 MBq i.v., mean ± SD, n = 4
# Description: as §1
# (§3) To perform a microCT scan by a high-resolution Inveon MicroCT scanner (Siemens Medical Solutions) before microPET scan, an anesthetized nude mouse bearing UM-SCC-22B tumor was mounted on a turntable bed that could be moved automatically in the axial direction. Whole body CT acquisition parameters were as follows: voltage 70 kVp, current 400 μA, angular sampling 1° per projection for a full 360° scan, and effective pixel size 58 μm. Scan time was approximately 12 min. The image was reconstructed in real-time by a modified Feldkamp cone bean algorithm with a Shepp-Logan filter and appropriate center offset determined prior to scanning. PET scans were performed using an Inveon microPET scanner (Siemens Medical Solutions). Tumor-bearing mice were anesthetized using isoflurane/O2 (1.5–2% v/v) and intravenously injected with 3.7 MBq (100 μCi) of [^18F]FP-Met-pep1 in a volume of 100 μl saline. For blocking experiments, [^18F]FP-Met-pep1 was co-injected with 500 μg of unlabeled Met-pep1 peptide. Each group contained four mice. The images were reconstructed by a three-dimensional ordered subsets expectation maximization (3D-OSEM) algorithm with maximum a posteriori (MAP) algorithm and the frame rates were 10 × 30s, 5 × 60s, 5 × 120s and 10 × 240s, and no correction was applied for attenuation or scatter. Static images at 1 h time point were also acquired as 10-min static images for region of interest (ROI) quantification. Image analysis was done using ASI Pro VMTM software. PET/CT images were co-registered and fused automatically with ASI software. For each microPET scan, three-dimensional ROIs were drawn over the tumor, liver, kidney, and muscle on decay-corrected whole-body coronal images. The average radioactivity concentration within a tumor or an organ was obtained from mean pixel values within the ROI volume, which were converted to counts per milliliter by using a pre-determined conversion factor.
# [4] = system: UM-SCC-22B tumor-bearing mice; assay: MicroPET imaging, ROI quantification; assay type: in vivo
# Description: as §1, §3
# UM-SCC-22B cells [5] = assay: Cell uptake and blocking of [18F]FP-Met-pep1; assay type: cell-based, human
# Description: as §2
# UM-SCC-22B cells [6] = assay: Internalization assay (acid wash); assay type: cell-based, human; settings: 37°C, early phase, acid wash pH 2.8
# Description: as §2
smiles,measurement,setting,value
CC(C)C[C@H](NC(=O)[C@@H](N)Cc1ccc(O)cc1)C(=O)N[C@@H](Cc1ccccc1)C(=O)N[C@@H](CO)C(=O)N[C@H](C(=O)N[C@@H](Cc1c[nH]cn1)C(=O)N[C@@H](Cc1c[nH]c2ccccc12)C(=O)N1CCC[C@H]1C(=O)N1CCC[C@H]1C(=O)N[C@@H](CC(C)C)C(=O)N[C@@H](CCCCNC(=O)C(C)F)C(=O)N[C@@H](C)C(=O)O)C(C)C (some centres unmarked) [[^18F]FP-Met-pep1] (H-YLFSVHWPPLK(Propanoyl(2-F))A-OH),tissue uptake at 0.5 h,"[1]; blood, 3.7 MBq, without blocking, read-out: blood tracer concentration",1.55 ± 0.48 %ID/g
same,tissue uptake at 0.5 h,"[1]; blood, with 500 μg unlabeled peptide, read-out: blood tracer concentration, after blocking",2.85 ± 0.76 %ID/g
same,tissue uptake at 0.5 h,"[1]; kidney, 3.7 MBq, blocking state not clearly stated, read-out: kidney tracer accumulation (ex vivo)",10.5 ± 0.53 %ID/g
same,tissue uptake at 0.5 h,"[1]; liver, 3.7 MBq, blocking state not clearly stated, read-out: liver tracer accumulation (ex vivo)",5.58 ± 0.45 %ID/g
same,tissue uptake at 0.5 h,"[1]; tumor (UM-SCC-22B xenograft), 3.7 MBq, absence of unlabeled peptide, read-out: tumor uptake (tissue sampling, gamma-counting)",4.58 ± 0.59 %ID/g
same,tissue uptake at 0.5 h,"[1]; tumor (UM-SCC-22B xenograft), presence of 500 μg unlabeled peptide, read-out: tumor uptake (tissue sampling, gamma-counting), blocked",0.88 ± 0.35 %ID/g
same,tracer effluxed out of the cells,UM-SCC-22B cells [2]; 15 min,approximately 47%
same,radiotracer remained bound with the cells,UM-SCC-22B cells [2]; end of incubation (60 min),about 36%
same,tissue uptake at 0.5 h,"[3]; liver, 30 min post-injection, read-out: liver uptake (microPET)",11.5 ± 0.78 %ID/g
same,tissue uptake at 0.5 h,"[3]; tumor (UM-SCC-22B xenograft), UM-SCC-22B tumor, 30 min post injection, read-out: tumor uptake (microPET)",4.72 ± 0.67 %ID/g
same,tissue uptake at 1 h,"[3]; tumor (UM-SCC-22B xenograft), UM-SCC-22B tumor, 60 min post injection",3.83 ± 0.55 %ID/g
same,tissue uptake at 2 h,"[3]; tumor (UM-SCC-22B xenograft), UM-SCC-22B tumor, 120 min post injection",3.11 ± 0.25 %ID/g
same,muscle uptake (microPET),"[4]; all timepoints (30, 60, 120 min)",very low uptake
same,"radioactivity excreted, primarily through the renal pathway","[4]; within 2 h after injection, dynamic microPET (S1 Fig)",about 65%
same,cell uptake in presence of unlabeled Met-pep1 (blocking),UM-SCC-22B cells [5]; 500 μg/well unlabeled Met-pep1 pre-incubated 15 min at 37°C,dramatic inhibition of cell uptake
same,cell uptake (percentage of added dose),"UM-SCC-22B cells [5]; 18.5 kBq (0.5 μCi)/well, 37°C, 30 min incubation (peak), gamma counter, mean ± SD, triplicate wells",34.52 ± 1.34%
same,fraction of observed uptake due to internalization,UM-SCC-22B cells [6],Approximately 2/3

# — article PMC5997322, “Imaging c-Met expression using 18F-labeled binding peptide in human cancer xenografts” (PLoS ONE, 2018)
